Test results published in patent publication US20130172294A1, “Treatment with VB-201” (Vascular Biogenics Ltd., priority 2010, published 2013).

Test: Effect of food and capsule coating on single-dose pharmacokinetics (Example 3)
Format: in vivo, human
Protocol: Determination of VB-201 concentrations in plasma was performed using an HPLC-MS/MS (high performance liquid chromatography with tandem mass spectrometric detection) assay. Calibration was for a range of from 5 to 500 ng/ml for low doses and from 50 to 5000 ng/ml for high doses. Pharmacokinetic parameters were estimated by using a non-compartmental method, except for the AUC (area under curve), which was determined using a (log-) trapezoidal rule as the area above the previous trough level. All calculations were made using PKWizard (developed by Russell Barbare and Dr. […] was validated against WinNonlin (Pharsight Corp.), which is an FDA-recognized validated program. Pharmacokinetic parameters were calculated by the program according to standard methods used in the art. Calculation of the pharmacokinetic characteristics was based on the actual blood sampling time (in hours), with predose times set to zero. Concentrations below the LLOQ (lower limit of quantification; 4.974 ng/ml) were assumed to be zero. The effects of food on the pharmacokinetics of enteric coated and non-coated VB-201 capsules were investigated in a double-blind, placebo-controlled study in healthy subjects. Cohorts of six subjects each received a single dose of 10 mg, 2×10 mg or 20 mg VB-201 in the morning. […] Subjects were randomly assigned to receive the drug when fed (i.e., following completion of a standardized high fat meal) or when fasting (i.e., fasting for at least 10 hours). […] Subjects then underwent an additional 8 day washout period, after which subjects underwent a second administration. Subjects who received the first administration when fasting, received the second administration when fed, and subjects who received the first administration when fed, received the second administration when fasting. Following the second administration, blood samples were taken at the same times post-dose as previously. Concentration-time curves were constructed for time periods of up to 144 hours. Pharmacokinetic parameters were calculated based on data for the first 24 hours and for the whole 144 hours. […] Nevertheless, parameters were also calculated from data covering the first 24 hours in order to compare parameters with previous studies. Statistical comparisons of doses, coated vs. non-coated capsules, feeding vs. fasting and coating-feeding interactions were performed using a mixed model ANOVA in an SAS 8.02 software package (SAS Institute, Cary, N.C.) using PROC MIXED

Structure (SMILES): CCCCCCCCCCCCCCCCOCC(COP(=O)([O-])OCC[N+](C)(C)C)OCCCCC(=O)O (stereo not drawn) [VB-201, 1-hexadecyl-2-(4′-carboxybutyl)-glycerol-3-phosphocholine]
- AUC (0-infinity, from 24) (1 × 10 mg coated fasting): 4801 ng·h/mL
- AUC (0-infinity, from 144) (1 × 10 mg coated fasting): 8017 ng·h/mL
- AUC(0-24) (1 × 10 mg coated fasting): 2602 ng·h/mL
- AUC(0-144) (1 × 10 mg coated fasting): 7397 ng·h/mL
- AUMC (0-24) (1 × 10 mg coated fasting): 33556 hours^2*ng/ml
- AUMC (0-infinity) (1 × 10 mg coated fasting): 467760 hours^2*ng/ml
- Cl/F (0-24) (1 × 10 mg coated fasting): 3.293 L/h
- Cl/F (from 144) (1 × 10 mg coated fasting): 1.580 L/h
- Cmax (1 × 10 mg coated fasting): 171.4 ng/mL
- Ke (from 24) (1 × 10 mg coated fasting): 0.0438 h⁻¹
- Ke (from 144) (1 × 10 mg coated fasting): 0.0201 h⁻¹
- MTT (0-24) (1 × 10 mg coated fasting): 12.8 h
- MTT (from 144) (1 × 10 mg coated fasting): 60.7 h
- T1/2 (from 24) (1 × 10 mg coated fasting): 17.8 h
- T1/2 (from 144) (1 × 10 mg coated fasting): 37.6 h
- Tmax (1 × 10 mg coated fasting): 9.33 h
- AUC (0-infinity, from 24) (1 × 10 mg coated fed): 5898 ng·h/mL
- AUC (0-infinity, from 144) (1 × 10 mg coated fed): 9751 ng·h/mL
- AUC(0-24) (1 × 10 mg coated fed): 2202 ng·h/mL
- AUC(0-144) (1 × 10 mg coated fed): 8583 ng·h/mL
- AUMC (0-24) (1 × 10 mg coated fed): 32798 hours^2*ng/ml
- AUMC (0-infinity) (1 × 10 mg coated fed): 699311 hours^2*ng/ml
- Cl/F (0-24) (1 × 10 mg coated fed): 1.883 L/h
- Cl/F (from 144) (1 × 10 mg coated fed): 1.091 L/h
- Cmax (1 × 10 mg coated fed): 186.4 ng/mL
- Ke (from 24) (1 × 10 mg coated fed): 0.0352 h⁻¹
- Ke (from 144) (1 × 10 mg coated fed): 0.0166 h⁻¹
- MTT (0-24) (1 × 10 mg coated fed): 15.1 h
- MTT (from 144) (1 × 10 mg coated fed): 70.7 h
- T1/2 (from 24) (1 × 10 mg coated fed): 23.4 h
- T1/2 (from 144) (1 × 10 mg coated fed): 45.0 h
- Tmax (1 × 10 mg coated fed): 13.67 h
- AUC (0-infinity, from 24) (1 × 10 mg non-coated fasting): 9375 ng·h/mL
- AUC (0-infinity, from 144) (1 × 10 mg non-coated fasting): 15995 ng·h/mL
- AUC(0-24) (1 × 10 mg non-coated fasting): 5759 ng·h/mL
- AUC(0-144) (1 × 10 mg non-coated fasting): 14544 ng·h/mL
- AUMC (0-24) (1 × 10 mg non-coated fasting): 67186 hours^2*ng/ml
- AUMC (0-infinity) (1 × 10 mg non-coated fasting): 924243 hours^2*ng/ml
- Cl/F (0-24) (1 × 10 mg non-coated fasting): 1.184 L/h
- Cl/F (from 144) (1 × 10 mg non-coated fasting): 0.695 L/h
- Cmax (1 × 10 mg non-coated fasting): 364.5 ng/mL
- Ke (from 24) (1 × 10 mg non-coated fasting): 0.0575 h⁻¹
- Ke (from 144) (1 × 10 mg non-coated fasting): 0.0190 h⁻¹
- MTT (0-24) (1 × 10 mg non-coated fasting): 11.7 h
- MTT (from 144) (1 × 10 mg non-coated fasting): 54.2 h
- T1/2 (from 24) (1 × 10 mg non-coated fasting): 13.6 h
- T1/2 (from 144) (1 × 10 mg non-coated fasting): 39.7 h
- Tmax (1 × 10 mg non-coated fasting): 7.67 h
- AUC (0-infinity, from 24) (1 × 10 mg non-coated fed): 7019 ng·h/mL
- AUC (0-infinity, from 144) (1 × 10 mg non-coated fed): 16062 ng·h/mL
- AUC(0-24) (1 × 10 mg non-coated fed): 4855 ng·h/mL
- AUC(0-144) (1 × 10 mg non-coated fed): 13717 ng·h/mL
- AUMC (0-24) (1 × 10 mg non-coated fed): 60611 hours^2*ng/ml
- AUMC (0-infinity) (1 × 10 mg non-coated fed): 1254665 hours^2*ng/ml
- Cl/F (0-24) (1 × 10 mg non-coated fed): 1.552 L/h
- Cl/F (from 144) (1 × 10 mg non-coated fed): 0.702 L/h
- Cmax (1 × 10 mg non-coated fed): 343.3 ng/mL
- Ke (from 24) (1 × 10 mg non-coated fed): 0.0670 h⁻¹
- Ke (from 144) (1 × 10 mg non-coated fed): 0.0180 h⁻¹
- MTT (0-24) (1 × 10 mg non-coated fed): 12.5 h
- MTT (from 144) (1 × 10 mg non-coated fed): 70.3 h
- T1/2 (from 24) (1 × 10 mg non-coated fed): 11.2 h
- T1/2 (from 144) (1 × 10 mg non-coated fed): 47.7 h
- Tmax (1 × 10 mg non-coated fed): 10.17 h
- AUC (0-infinity, from 24) (1 × 20 mg coated fasting): 9794 ng·h/mL
- AUC (0-infinity, from 144) (1 × 20 mg coated fasting): 15637 ng·h/mL
- AUC(0-24) (1 × 20 mg coated fasting): 5362 ng·h/mL
- AUC(0-144) (1 × 20 mg coated fasting): 14579 ng·h/mL
- AUMC (0-24) (1 × 20 mg coated fasting): 68472 hours^2*ng/ml
- AUMC (0-infinity) (1 × 20 mg coated fasting): 849853 hours^2*ng/ml
- Cl/F (0-24) (1 × 20 mg coated fasting): 3.188 L/h
- Cl/F (from 144) (1 × 20 mg coated fasting): 2.387 L/h
- Cmax (1 × 20 mg coated fasting): 366.3 ng/mL
- Ke (from 24) (1 × 20 mg coated fasting): 0.0385 h⁻¹
- Ke (from 144) (1 × 20 mg coated fasting): 0.0203 h⁻¹
- MTT (0-24) (1 × 20 mg coated fasting): 12.8 h
- MTT (from 144) (1 × 20 mg coated fasting): 53.8 h
- T1/2 (from 24) (1 × 20 mg coated fasting): 19.9 h
- T1/2 (from 144) (1 × 20 mg coated fasting): 35.6 h
- Tmax (1 × 20 mg coated fasting): 8.17 h
- AUC (0-infinity, from 24) (1 × 20 mg coated fed): 20054 ng·h/mL
- AUC (0-infinity, from 144) (1 × 20 mg coated fed): 16687 ng·h/mL
- AUC(0-24) (1 × 20 mg coated fed): 4655 ng·h/mL
- AUC(0-144) (1 × 20 mg coated fed): 14968 ng·h/mL
- AUMC (0-24) (1 × 20 mg coated fed): 66330 hours^2*ng/ml
- AUMC (0-infinity) (1 × 20 mg coated fed): 1070977 hours^2*ng/ml
- Cl/F (0-24) (1 × 20 mg coated fed): 1.400 L/h
- Cl/F (from 144) (1 × 20 mg coated fed): 1.583 L/h
- Cmax (1 × 20 mg coated fed): 306.6 ng/mL
- Ke (from 24) (1 × 20 mg coated fed): 0.0230 h⁻¹
- Ke (from 144) (1 × 20 mg coated fed): 0.0179 h⁻¹
- MTT (0-24) (1 × 20 mg coated fed): 14.9 h
- MTT (from 144) (1 × 20 mg coated fed): 62.9 h
- T1/2 (from 24) (1 × 20 mg coated fed): 53.2 h
- T1/2 (from 144) (1 × 20 mg coated fed): 39.6 h
- Tmax (1 × 20 mg coated fed): 11.67 h
